Measurements: patent US9556153B1, “JAK1 inhibitors” (Eli Lilly and Company, priority 2015, dated 2017)

Tests used:
JAK1 = JAK1 (Homo sapiens, UniProt P23458); experiment: Phospho-STAT3 (Tyr705) ACUMEN H1975-JAK1 cell-based assay; parameters: endogenous in cells; conditions: H1975 NSCLC cells, 4 hr; n=1; read-out: IC50, pSTAT3 (Tyr705) in H1975 cells
Protocol: Phospho-STAT3 (Tyr705) ACUMEN Protocol—H1975-JAK1 Cell-Based Assay
An H1975-JAK1 cellular assay is used to confirm the potency of test compounds in NSCLC cells in which the STAT3 pathway is activated by autocrine IL-6 loop. […]
On Day 2, perform the following steps sequentially: wash 2 times with 100 μL PBS; add 50 μL of secondary antibody (1:1000; Ab2° goat anti-mouse IgG); incubate for 1 hour at RT in the dark; wash 2 times with 100 μL PBS; add 100 μL of Propidium Iodide (1:1000 in PBS from commercial solution) containing RNAse (50 μg/mL in PBS); seal plates with transparent film and incubate at RT for 2 hours before reading; read on Acumen Explorer (set parameter based on positive and negative well). […]

JAK2 = JAK2 (Homo sapiens, UniProt O60674); experiment: JAK LanthaScreen Kinase Assay (TR-FRET), JAK2 in vitro enzyme assay; type: biochemical; parameters: purchased Invitrogen; conditions: ATP 5 μM; n=6
Excerpt: JAK1, JAK2 and JAK3 In Vitro Enzyme Assays
The JAK LanthaScreen™ Kinase Assay (Invitrogen) is used to determine the ability of test compounds to inhibit JAK1, JAK2 and JAK3 kinase activity. These are TR-FRET assay formats that use long-lifetime terbium labeled antibody as the donor species and GFP-STAT1 as the acceptor species. Use the TR-FRET ratio to monitor JAK kinase activity where an increase in phosphorylation of the GFP-STAT1 results in an increase in the TR-FRET ratio. Perform the kinase reaction using a 12.5 μl reaction volume in shallow black 384-well Proxiplate. Add reagents to obtain final reaction conditions of […] HEPES pH, 1.76 mM Triton X-100, ATP (20.0 μM for JAK1 and JAK3 or 5 μM for JAK2) enzyme assays, 10.0 mM MgCl2, 1 mM EGTA and 0.01% Brij-35, 0.05 mM GFP-STAT1, 14 nM JAK1 enzyme for JAK1, 1.0 nM for JAK2 or 2.5 nM for JAK3 enzyme assays, and 4% DMSO and serial dilutions of test compound (diluted 1:3 from 20,000 to 1 nM). Following ATP/GFP-STAT1 addition, centrifuge the assay plates for 1 minute at 1000 revolutions per minute (RPM). Allow the plates to incubate at RT for 60 minutes and then add 12.5 μl of a stopping buffer containing 20 mM EDTA, 2 nM Terbium-anti-phosphorylated Signal Transducers and Activators of Transcription [phosphorylation Tyrosine 701 amino acid] […]

Chain of JAK1 (P23458 whole entry): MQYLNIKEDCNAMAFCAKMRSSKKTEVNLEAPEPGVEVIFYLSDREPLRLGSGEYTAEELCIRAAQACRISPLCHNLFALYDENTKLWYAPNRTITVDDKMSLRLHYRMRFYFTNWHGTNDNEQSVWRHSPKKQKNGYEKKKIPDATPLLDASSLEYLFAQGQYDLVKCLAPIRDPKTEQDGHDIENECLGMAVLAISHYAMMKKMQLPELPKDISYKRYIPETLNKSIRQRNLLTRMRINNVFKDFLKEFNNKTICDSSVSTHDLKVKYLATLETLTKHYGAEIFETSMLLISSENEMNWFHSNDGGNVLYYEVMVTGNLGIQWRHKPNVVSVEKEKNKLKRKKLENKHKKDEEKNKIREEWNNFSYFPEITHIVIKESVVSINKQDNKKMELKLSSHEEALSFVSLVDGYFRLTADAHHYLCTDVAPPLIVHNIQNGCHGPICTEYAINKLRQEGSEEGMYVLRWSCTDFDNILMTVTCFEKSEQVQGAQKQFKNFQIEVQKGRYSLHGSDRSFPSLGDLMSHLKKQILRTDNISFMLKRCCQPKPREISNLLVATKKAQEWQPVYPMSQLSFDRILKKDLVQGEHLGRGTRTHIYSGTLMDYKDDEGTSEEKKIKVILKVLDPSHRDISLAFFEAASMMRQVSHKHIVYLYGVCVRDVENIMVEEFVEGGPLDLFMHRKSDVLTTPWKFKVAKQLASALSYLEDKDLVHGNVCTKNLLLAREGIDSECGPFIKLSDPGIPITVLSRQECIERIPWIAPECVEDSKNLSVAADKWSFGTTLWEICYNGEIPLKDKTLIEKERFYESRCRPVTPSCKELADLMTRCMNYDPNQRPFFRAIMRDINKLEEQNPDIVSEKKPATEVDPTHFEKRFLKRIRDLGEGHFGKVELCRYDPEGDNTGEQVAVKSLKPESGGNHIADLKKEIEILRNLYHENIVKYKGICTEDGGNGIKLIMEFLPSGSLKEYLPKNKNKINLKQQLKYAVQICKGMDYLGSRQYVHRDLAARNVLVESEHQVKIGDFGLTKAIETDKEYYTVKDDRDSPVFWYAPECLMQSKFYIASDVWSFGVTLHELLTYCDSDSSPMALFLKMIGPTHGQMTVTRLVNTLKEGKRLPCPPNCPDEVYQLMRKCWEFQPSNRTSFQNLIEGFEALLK
Chain of JAK2 (O60674 whole entry): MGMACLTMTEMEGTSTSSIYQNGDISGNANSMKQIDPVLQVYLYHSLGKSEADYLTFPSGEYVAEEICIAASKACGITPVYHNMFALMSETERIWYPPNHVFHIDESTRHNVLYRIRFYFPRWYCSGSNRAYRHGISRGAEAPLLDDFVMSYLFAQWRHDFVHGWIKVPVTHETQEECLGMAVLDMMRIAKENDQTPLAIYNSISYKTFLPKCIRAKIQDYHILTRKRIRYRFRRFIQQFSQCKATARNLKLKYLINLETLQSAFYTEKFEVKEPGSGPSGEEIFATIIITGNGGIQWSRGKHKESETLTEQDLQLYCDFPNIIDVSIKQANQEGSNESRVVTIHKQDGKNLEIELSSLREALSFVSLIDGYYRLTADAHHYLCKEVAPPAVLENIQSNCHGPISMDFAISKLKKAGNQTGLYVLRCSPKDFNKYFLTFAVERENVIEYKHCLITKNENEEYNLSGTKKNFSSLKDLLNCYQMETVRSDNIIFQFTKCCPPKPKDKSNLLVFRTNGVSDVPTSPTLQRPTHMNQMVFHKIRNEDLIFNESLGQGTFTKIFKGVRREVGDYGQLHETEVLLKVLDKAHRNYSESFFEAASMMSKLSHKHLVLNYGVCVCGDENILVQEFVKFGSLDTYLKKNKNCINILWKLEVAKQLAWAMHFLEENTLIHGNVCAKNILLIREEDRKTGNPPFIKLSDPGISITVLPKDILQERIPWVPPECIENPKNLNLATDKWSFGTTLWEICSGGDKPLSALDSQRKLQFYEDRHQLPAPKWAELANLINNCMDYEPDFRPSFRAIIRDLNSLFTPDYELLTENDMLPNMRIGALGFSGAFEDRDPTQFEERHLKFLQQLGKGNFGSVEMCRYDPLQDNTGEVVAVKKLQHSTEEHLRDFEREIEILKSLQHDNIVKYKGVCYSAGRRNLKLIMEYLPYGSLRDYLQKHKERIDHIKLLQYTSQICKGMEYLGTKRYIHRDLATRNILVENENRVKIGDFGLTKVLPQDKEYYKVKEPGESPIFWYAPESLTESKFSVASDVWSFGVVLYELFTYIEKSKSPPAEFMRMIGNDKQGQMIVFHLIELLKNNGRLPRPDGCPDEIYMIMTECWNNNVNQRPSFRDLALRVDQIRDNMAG

IC50 (JAK1): 297 nM
IC50 (JAK2): 557 ± 337 nM
Compound: Cc1cc(Nc2cc(O[C@H]3CC[C@@H](NC[C@@H](O)C(F)(F)F)CC3)cc3c2ncn3C)nn1C [Example 1, (2R)-3-{[cis-4-({4-[(1,5-Dimethyl-1H-pyrazol-3-yl)amino]-1-methyl-1H-benzimidazol-6-yl}oxy)cyclohexyl]amino}-1,1,1-trifluoropropan-2-ol]
